Target: T1, Prolyl endopeptidase FAP (Homo sapiens, UniProt Q12884)
T1 sequence (Q12884 whole entry): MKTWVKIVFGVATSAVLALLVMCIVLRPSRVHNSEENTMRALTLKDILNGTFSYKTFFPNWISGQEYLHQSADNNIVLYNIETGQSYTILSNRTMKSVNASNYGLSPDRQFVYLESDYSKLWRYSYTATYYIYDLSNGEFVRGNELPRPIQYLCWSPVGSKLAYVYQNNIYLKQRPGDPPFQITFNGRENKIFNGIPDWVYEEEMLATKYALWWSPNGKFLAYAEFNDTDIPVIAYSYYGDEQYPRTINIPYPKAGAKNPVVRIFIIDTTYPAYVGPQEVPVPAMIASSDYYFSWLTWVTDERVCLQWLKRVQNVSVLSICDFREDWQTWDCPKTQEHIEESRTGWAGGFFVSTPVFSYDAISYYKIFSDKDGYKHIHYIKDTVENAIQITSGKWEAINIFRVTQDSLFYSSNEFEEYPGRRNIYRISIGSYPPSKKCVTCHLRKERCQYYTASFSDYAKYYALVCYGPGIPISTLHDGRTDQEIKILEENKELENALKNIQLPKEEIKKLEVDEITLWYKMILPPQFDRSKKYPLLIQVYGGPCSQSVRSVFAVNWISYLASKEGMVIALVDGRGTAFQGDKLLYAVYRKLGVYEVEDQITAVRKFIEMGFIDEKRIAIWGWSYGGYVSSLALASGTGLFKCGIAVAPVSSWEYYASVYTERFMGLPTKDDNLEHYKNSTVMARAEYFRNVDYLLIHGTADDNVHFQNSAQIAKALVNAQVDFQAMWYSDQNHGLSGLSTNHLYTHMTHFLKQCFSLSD
Assay: In Vitro hFAP Inhibition Assay
Experimental: FAPI-46 was used as positive control. Experiments were performed in triplicate, and the mean fluorescence values were fitted using Graph Pad Prism 9 (equation used: Y=Bottom+(Top−Bottom)/(1+((X^HillSlope)/(IC50^HillSlope)))).

| Compound | IC50 [nM] |
| --- | --- |
| CN(C(=O)CCC(=O)NCCNC(=O)CCC(C(=O)O)[N+]12CC[N+]34CC[N+]5(CC1)CC(=O)[O][Cu]352[O]C(=O)C4)c1ccc2nccc(C(=O)NCC(=O)N3CC(F)(F)C[C@H]3C#N)c2c1 (some centres not stated) [US20240173440, Compound [natCu]Cu-NODAGA-F2] | 0.12 |
| N#C[C@@H]1CC(F)(F)CN1C(=O)CNC(=O)c1ccnc2ccc(NC(=O)CCC(=O)N3CCN(C(=O)CCC(C(=O)O)[N+]45CC[N+]67CC[N+]8(CC4)CC(=O)[O][Cu]685[O]C(=O)C7)CC3)cc12 (some centres not stated) [US20240173440, Compound [natCu]Cu-NODAGA-F3] | 0.04 |
